Test [1] deals with diabetic mice (db/db). As to the kind of experiment: Glial activation by GFAP immunofluorescence in retina, topical eye drops. In kind it is in vivo. How it is done:
8-week old diabetic mice (db/db) received the miS1 peptide in the form of eye drops (5 μL drops in each eye; 10 mg/mL; twice a day for 15 days; n=7 mice). Diabetic mice treated with the non-functional peptide Mut (n=7), treated with vehicle and non-diabetic mice (db/+) were used as controls. The eye drops were directly administered on the upper surface of the cornea of each eye using a micropipette. The weight and glycemia (colorimetric assay) were controlled throughout the study period. On day 15, the drop with the miS1 peptide or vehicle was administered about two hours before autopsy. […]
Glial activation was evaluated by means of GFAP (Glial fibrillar acidic protein) immunofluorescence following the methodology described in other studies (Bogdanov et al. PLoS One. 2014; 9:e97302). […] The images of diabetic and control samples were taken with identical parameters and the topographic distribution of the GFAP labelling was analyzed in a scale of 0 to 5 (Anderson et al. Clin Ophthalmol 2008; 2(4):801-16). […] Apoptosis was determined by means of TUNEL (Terminal Transferase dUTP Nick-EndLabeling; fluorescence kit) immunohistochemistry using the previously described method (Bogdanov et al. PLoS One. 2014; 9:e97302) and subsequent quantification under a fluorescence microscope. […]

Test [2] has as its system diabetic mice (db/db). As to the kind of experiment: Disruption of the blood-retinal barrier, albumin extravasation. In kind it is in vivo. The following applies: eye drops 50 μg in 5 μL/eye twice a day, 15 days. The method, then:
8-week old diabetic mice (db/db) received the miS1 peptide in the form of eye drops (5 μL drops in each eye; 10 mg/mL; twice a day for 15 days; n=7 mice). Diabetic mice treated with vehicle (n=7) and non-diabetic mice (db/+) (n=7) were used as controls. The weight and glycemia (colorimetric assay) were controlled throughout the study period. The animals were euthanized on day 15 by cervical dislocation. The disruption of the BRB was evaluated by means of determining albumin permeability.
The paraffin sections were deparaffinized in xylene and rehydrated in a gradual series of ethanol. The sections were fixed in acidic methanol (−20° C.) for 1 minute and washed with 0.01 M PBS solution at pH 7.4. The sections were incubated in a blocking solution (2.5% dry, non-fat milk) for 30 minutes at room temperature. The sections were incubated with a goat anti-human serum albumin primary antibody (1:500, Abcam) overnight at 4° C. After one washing in PBS, the sections were incubated with an Alexa 594 donkey anti-goat secondary antibody (1:200, Molecular Probes) for 1 hour at room temperature. […] The immunofluorescence of albumin was analyzed by means of laser confocal microscopy (Olympus FluoView™ FV1000 confocal microscope, Hamburg, Germany).

For test [3], the system named is STAT3. In words: Renal phosphorylated STAT3 immunodetection in diabetic mice. In kind it is in vivo. To be noted: STZ apoE mice, i.p. 8 weeks; kidney sections, vs vehicle. The method, then:
(§1) Apolipoprotein E (apoE)-deficient male mice of 8 weeks of age were made diabetic through streptozotocin injection (125 mg/kg weight in 10 mM citrate, pH 4.5, two consecutive days). After 2 weeks, animals with glycemia greater than 350 mg/dL were randomly distributed in two groups (n=9 animals per group): treated animals (miS1 peptide: 65 μg/day, 200 μL, intraperitoneally, every 2 days for 8 weeks) and controls (vehicle). The weight and glycemia (colorimetric assay) were controlled throughout the study period.

The subject of test [4] is RAW264.7 macrophages. In words: Macrophage migration chemotaxis assay. In kind it is cell-based, murine. To be noted: chemotaxis assays. How it is done: RAW264.7 macrophages and vascular smooth muscle cells (VSMC) cultured in a medium with 10% fetal bovine serum were used. The cells were synchronized (24 hours without serum), pre-incubated for 90 minutes with different peptide concentrations (miS1 or the control thereof, 50-150 μg/mL) and stimulated with cytokines (IFNγ […]). STAT activation was analyzed by means of Western blot for phosphorylated STAT1/STAT3 isoforms. JAK/STAT pathway-dependent chemokine (CCL2) expression was determined by means of ELISA. Cell viability was analyzed by MTT colorimetric assay and macrophage migration was analyzed by chemotaxis assay.

In test [5] the test system is diabetic mice (db/db). As to the kind of experiment: Retinal apoptosis by TUNEL, topical eye drops. In kind it is in vivo. The method, then: 8-week old diabetic mice (db/db) received the miS1 peptide in the form of eye drops (5 μL drops in each eye; 10 mg/mL; twice a day for 15 days; n=7 mice). Diabetic mice treated with the non-functional peptide Mut (n=7), treated with vehicle and non-diabetic mice (db/+) were used as controls. The eye drops were directly administered on the upper surface of the cornea of each eye using a micropipette. The weight and glycemia (colorimetric assay) were controlled throughout the study period. On day 15, the drop with the miS1 peptide or vehicle was administered about two hours before autopsy. The animals were euthanized by cervical dislocation and the enucleated eyes were immediately frozen and dorsoventral sections of […] were cut for analyzing retinal morphology and other immunohistochemical analyses.
Glial activation was evaluated by means of GFAP (Glial fibrillar acidic protein) immunofluorescence following the methodology described in other studies (Bogdanov et al. PLoS One. 2014; 9:e97302). The fixed sections were blocked (1% BSA and 10% goat serum in PBS, 2 hours at RT) and incubated with anti-GFAP antibodies (dilution 1:500, 16 hours at 4° C.) followed by a secondary antibody (Alexa 488-conjugated goat anti-rabbit, dilution 1:200). […] The images of diabetic and control samples were taken with identical parameters and the topographic distribution of the GFAP labelling was analyzed in a scale of 0 to 5 (Anderson et al. Clin Ophthalmol 2008; 2(4):801-16). […] Apoptosis was determined by means of TUNEL (Terminal Transferase dUTP Nick-EndLabeling; fluorescence kit) immunohistochemistry using the previously described method (Bogdanov et al. PLoS One. 2014; 9:e97302) and subsequent quantification under a fluorescence microscope. […] The apoptotic cells were identified using green fluorescence [[…] goat-anti-rabbit (Invitrogen) (dilution 1:200 prepared in PBS)]. An excitation wavelength in the interval of 450-565 nm (e.g., 488 nm) was used for evaluation using fluorescence microscopy and the interval of 515-565 nm (green) was used for detection. […]

Test [6] has as its system STAT1. In words: Renal phosphorylated STAT1 immunodetection in diabetic mice. In kind it is in vivo. The following applies: STZ apoE mice, i.p. 8 weeks; kidney sections, vs vehicle. The method, then: as §1
The mark [7] stands for this setting: eye drops 15 days, compared with groups that received Mut peptide or vehicle.
Setting [8] is: eye drops 50 μg in 5 μL/eye twice a day, 15 days.

Where no end group is shown, it is not given here. [ ]: non-standard residue; d: D form. lysine‑palmitate = lysine-palmitate bound at the N-terminal end; pY = N[C@@H](Cc1ccc(OP(=O)(O)O)cc1)C(=O)O

The substance “miS1: SEQ ID NO 1 DTHFRTFRSHSDYRRI, kinase inhibitory region of murine SOCS1, bound to lysine-palmitate at the N-terminal end, tyrosine phosphorylated ({lysine‑palmitate}-DTHFRTFRSHSD[pY]RRI)” registered a GFAP score in test [1] (eye drops 50 μg in 5 μL/eye twice a day, 15 days, scale 0 to 5) of 3. The “reduction of GFAP glial protein staining” value in test [1] (setting [7]) was “about 80%”. Besides, the “albumin extravasation (vascular permeability)” value in test [2] is “prevented”. In addition, in test [3], the “renal STAT3 activation” value was “reduction”. The macrophage migration result in test [4] is “anti-migratory effect”. In test [5] (setting [8]), the “apoptosis rate (TUNEL) vs diabetic mice treated with vehicle” value is recorded as “significantly lower apoptosis rate” and the “percentage of apoptotic cells vs non-diabetic mice” value is “No differences”. For the same substance, in test [5] (setting [7]), the reduction of apoptosis entry was “about 80%”. In addition, the “renal STAT1 activation” value in test [6] was “reduction”.

(Values after patent publication US10532082B2, “SOCS1-derived peptide for use in chronic complications of diabetes” (Fundació Hospital Universitari Vall d'Hebron-Institut de …, priority 2014, dated 2020).)
